According to patent US9205179B2, “Broad-spectrum antimicrobial compositions based on combinations of taurolidine and protamine and medical devices containing such compositions” (Ethicon, Inc., priority 2011, dated 2015):

Legend:
[1] = test system: Staphylococcus aureus ACTT 6538; experiment: In vitro bacteria attachment assay on coated mesh discs in SST medium; format: cell-based; conditions: serum containing media; same TU dosage alone or combined with PS
Method: (§1) Taurolidine was dissolved at 4% wt./vol. in a 70% acetone 30% water vol./vol. mixture. Protamine sulfate was dissolved at 10% wt./vol. in water under warming. 50 μl of the taurolidine (TU) solution and 20 μl of the protamine (PS) solution were applied to each mesh disk using a pipette and allowed to dry at 50° C. until the majority of the liquid was gone and then stored under vacuum. First the taurolidine solution was applied, and then immediately thereafter the protamine sulfate solution was applied. The in vitro bacteria attachment assay was developed for its utility of indicating biofilm prevention potential of prototype mesh. Since bacterial attachment to a surface is the first step of biofilm formation, a surface treatment that inhibits bacterial attachment would reduce the chance of subsequent biofilm formation. The assay was conducted in SST (Serum Saline TSB) medium to mimic in vivo and clinical conditions. The formulation of SST is Tryptic Soy Broth (TSB):serum:saline in the ratio of 1:2:7. Each test article was incubated in SST inoculated with Staphylococcus aureus ACTT 6538 or Escherichia coli ATCC 25922 at about 6 Log CFU/ml. […] Viable bacteria populations were measured by plate count on TSA (Tryptic Soy agar) medium contain neutralizing agents. […]

[2] = test system: Escherichia coli ATCC 25922; experiment: as above; format: cell-based; conditions: serum containing media; same TU dosage alone or combined with PS
Method: as §1

[3] = cited from earlier work

In the case of `O=S1(=O)CCN(CN2CCS(=O)(=O)NC2)CN1` [TU, bis(1,1-dioxoperhydro-1,2,4-thiadiazinyl-4)-methane], the “Inhibition of attachment by S. aureus to treated mesh surface” value [1] is given as “less inhibition than the combination”, the “Inhibition of attachment by E. coli to treated mesh surface” value [2] is given as “less inhibition than the combination” and the “Cumulative dose shown to be safe and well tolerated” value ([3]; cumulative dose, up to and exceeding) is given as “exceeding 300 g”. For the same compound, the “Systemic dose shown to be safe and well tolerated” value ([3]; systemic dose) was “exceeding 40 g/day”.
